Source: US11415579B2, “Assay for measuring a rate of reaction between a target and a ligand candidate” (Imperial College Innovations Ltd., priority 2016, dated 2022)

Experiments:
[1] = Kinetic thiol consumption assay with model thiol glutathione; type: physicochemical; parameters: Rate constant with glutathione (k(GSH)): unit not given here; conditions: for Rate constant with glutathione (k(GSH)): 500 μM ligand, 5 μM thiol, phosphate buffer pH 8; for Rate constant with Glutathione: Protein: Glutathione, cysteine position NA, in h-1
Method in brief: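 First, 5 μM glutathione in degassed phosphate buffer (pH 8) receives immobilized TCEP beads (2% v/v). Then acrylamide is added and plates incubate 1 h at room temperature. Finally, fluorescence (380/470 nm) is normalized and fitted to first-order decay for rate constants.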

[2] = biological target: T1, human cyclin-dependent kinase 2 (Cdk2) (Homo sapiens, UniProt P24941); experiment: Kinetic thiol consumption assay with wild type Cdk2 (C177); type: binding; parameters: key to Rate enhancement, Cdk2 WT: k(Cdk2) divided by k(model thiol); Rate constant with Cdk2 (k(Cdk2)): unit not given here; conditions: for Rate constant with Cdk2 (k(Cdk2)): 500 μM ligand, 5 μM thiol, phosphate buffer pH 8; for Rate enhancement, Cdk2 WT: no additional mutations; for Rate constant with Cdk2 WT: Protein: Cdk2, cysteine position WT, in h^-1; for k(Cdk2)/k(Cdk2_mut) rate enhancement: model thiol Cdk2[C177A, F80C, K278C]; for k(Cdk2)/k(GSH) rate enhancement: model thiol glutathione
T1 construct: poly-histidine; made in house; host or cells: E. coli
Method in brief: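 His-tagged human Cdk2 from E. coli (sole surface cysteine C177) or a model thiol, each 5 μM in degassed phosphate buffer pH 8 with immobilized TCEP, reacted with acrylamides at room temperature. Fluorescence (ex 380/em 470) normalized to DMSO/thiol control over time; first-order rate constants, Cdk2 rate divided by model-thiol rate.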

Cdk2[C177A, F80C, K278C] = biological target: T2, Cdk2[C177A, F80C, K278C] (Homo sapiens, UniProt P24941, C177A/F80C/K278C); experiment: Kinetic thiol consumption assay with mutant Cdk2 as model thiol; type: binding; parameters: unit not given here; conditions: 500 μM ligand, 5 μM thiol, phosphate buffer pH 8
T2 construct: poly-histidine; made in house; host or cells: E. coli
Method in brief: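 Model thiol: His-tagged human Cdk2 C177A/F80C/K278C (two engineered surface cysteines), E. coli-expressed, 5 μM in degassed phosphate buffer pH 8 with immobilized TCEP beads (2% v/v). Fluorescence (ex/em 380/470 nm) followed over time at room temperature, normalized to DMSO/thiol control. First-order decay fit gives rate constants.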

Cdk2(C177A, F80C) = biological target: T3, Cdk2(C177A, F80C) (Homo sapiens, UniProt P24941, C177A/F80C); experiment: Kinetic thiol consumption assay with Cdk2 mutant F80C, incl. kobs versus concentration (Kd, k2); type: binding; parameters: key to Rate enhancement, Cdk2 F80C: Cdk2 rate constant divided by model-thiol rate constant; conditions: additional mutation C177A; for Rate constant with Cdk2 F80C: Protein: Cdk2, cysteine position F80C, in h^-1
T3 construct: poly-histidine; made in house; host or cells: E. coli
Method in brief: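 His-tagged Cdk2(C177A/F80C) from E. coli or model thiol, 5 μM in degassed phosphate buffer pH 8 with TCEP beads, reacted with acrylamide ligands; fluorescence (ex/em 380/470 nm) normalized to DMSO control and fitted to first-order decay for kobs. Kd and k2 obtained from hyperbolic fit of kobs versus ligand concentration.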

Cdk2(H71C) (C177A) = biological target: T4, Cdk2(H71C) (C177A) (Homo sapiens, UniProt P24941, C177A/H71C); experiment: Kinetic thiol consumption assay with Cdk2 mutant H71C; type: binding; parameters: key to Rate enhancement, Cdk2 H71C: rate constant with Cdk2 ÷ rate constant with model thiol (fold); conditions: additional mutation C177A; for Rate constant with Cdk2 H71C: Protein: Cdk2, cysteine position H71C, in h^-1
T4 construct: poly-histidine; made in house; host or cells: E. coli
Method in brief: (§1)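 His-tagged single-surface-cysteine Cdk2 mutants (C177A background) from E. coli, 5 μM in degassed phosphate buffer pH 8, pre-treated with immobilized TCEP beads. Fluorescence (ex/em 380/470 nm) read after 1 h at room temperature, normalized to DMSO/thiol-only control; first-order decay fits gave rate constants, divided by model-thiol rate for rate enhancement.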

Cdk2(S276C) (C177A) = biological target: T5, Cdk2(S276C) (C177A) (Homo sapiens, UniProt P24941, C177A/S276C); experiment: Kinetic thiol consumption assay with Cdk2 mutant S276C; type: binding; parameters: key to Rate enhancement, Cdk2 S276C: rate constant with Cdk2 ÷ rate constant with model thiol (fold); conditions: additional mutation C177A; for Rate constant with Cdk2 S276C: Protein: Cdk2, cysteine position S276C, in h^-1
T5 construct: poly-histidine; made in house; host or cells: E. coli
Method in brief: as §1

Cdk2(N272C) (C177A) = biological target: T6, Cdk2(N272C) (C177A) (Homo sapiens, UniProt P24941, C177A/N272C); experiment: Kinetic thiol consumption assay with Cdk2 mutant N272C; type: binding; parameters: key to Rate enhancement, Cdk2 N272: rate constant with Cdk2 ÷ rate constant with model thiol (fold); conditions: for Rate enhancement, Cdk2 N272: Cdk2 N272, additional mutation C177A; for Rate constant with Cdk2 N272C: Protein: Cdk2, cysteine position N272C, additional mutation C177A, in h^-1
T6 construct: poly-histidine; made in house; host or cells: E. coli
Method in brief: as §1

Cdk2(T182C) (C177A) = biological target: T7, Cdk2(T182C) (C177A) (Homo sapiens, UniProt P24941, C177A/T182C); experiment: Kinetic thiol consumption assay with Cdk2 mutant T182C; type: binding; parameters: key to Rate enhancement, Cdk2 T182C: rate constant with Cdk2 ÷ rate constant with model thiol (fold); conditions: additional mutation C177A; for Rate constant with Cdk2 T182C: Protein: Cdk2, cysteine position T182C, in h^-1
T7 construct: poly-histidine; made in house; host or cells: E. coli
Method in brief: as §1

Cdk2(R122C) (C177A) = biological target: T8, Cdk2(R122C) (C177A) (Homo sapiens, UniProt P24941, C177A/R122C); experiment: Kinetic thiol consumption assay with Cdk2 mutant R122C; type: binding; parameters: key to Rate enhancement, Cdk2 R122C: rate constant with Cdk2 ÷ rate constant with model thiol (fold); conditions: additional mutation C177A; for Rate constant with Cdk2 R122C: Protein: Cdk2, cysteine position R122C, in h-1
T8 construct: poly-histidine; made in house; host or cells: E. coli
Method in brief: as §1

Cdk2(S181C) (C177A) = biological target: T9, Cdk2(S181C) (C177A) (Homo sapiens, UniProt P24941, C177A/S181C); experiment: Kinetic thiol consumption assay with Cdk2 mutant S181C; type: binding; parameters: key to Rate enhancement, Cdk2 S181C: rate constant with Cdk2 ÷ rate constant with model thiol (fold); conditions: additional mutation C177A; for Rate constant with Cdk2 S181C: Protein: Cdk2, cysteine position S181C, in h^-1
T9 construct: poly-histidine; made in house; host or cells: E. coli
Method in brief: as §1

Rate constant with Cdk2 (k(Cdk2)) [2]	Rate enhancement, Cdk2 WT [2]	Rate constant with Cdk2 WT [2]	k(Cdk2)/k(Cdk2_mut) rate enhancement [2]	k(Cdk2)/k(GSH) rate enhancement [2]	Rate constant with Cdk2[C177A, F80C, K278C] (k(Cdk2_mut)) (Cdk2[C177A, F80C, K278C])	Rate enhancement, Cdk2 F80C (Cdk2(C177A, F80C))	Rate constant with Cdk2 F80C (Cdk2(C177A, F80C))	Rate enhancement, Cdk2 H71C (Cdk2(H71C) (C177A))	Rate enhancement, Cdk2 S276C (Cdk2(S276C) (C177A))	Rate constant with Cdk2 S276C (Cdk2(S276C) (C177A))	Rate enhancement, Cdk2 N272 (Cdk2(N272C) (C177A))	Rate constant with Cdk2 N272C (Cdk2(N272C) (C177A))	Rate enhancement, Cdk2 T182C (Cdk2(T182C) (C177A))	Rate constant with Cdk2 T182C (Cdk2(T182C) (C177A))	Rate enhancement, Cdk2 R122C (Cdk2(R122C) (C177A))	Rate constant with Cdk2 R122C (Cdk2(R122C) (C177A))	Rate enhancement, Cdk2 S181C (Cdk2(S181C) (C177A))	SMILES	Rate constant with glutathione (k(GSH)) [1]	Rate constant with Glutathione [1]	also measured
0.00892	0.4226	0.008917	1.45	0.5196	0.00615	0.1236	0.002607	0.1266	0.3272	0.006904	0.2719	0.005738	1.766	0.03726	0.2033	0.004289	0.3298	C=CC(=O)N1CCN(C(=O)OC(C)(C)C)CC1 [CA-029]	0.01716	0.0211	Rate constant with Cdk2 H71C (Cdk2(H71C) (C177A)): 0.002672; Rate constant with Cdk2 S181C (Cdk2(S181C) (C177A)): 0.006959
0.01069	0.639	0.01069	0.277	0.6723	0.03859	1.494	0.025	0.1317	0.2657	0.004445	0.2409	0.00403	0.5957	0.009966	0.2896	0.004845	0.7478	C=CC(=O)Nc1ccccc1N1CCOCC1 [CA-030]	0.0159	0.01673	Rate constant with Cdk2 H71C (Cdk2(H71C) (C177A)): 0.002204; Rate constant with Cdk2 S181C (Cdk2(S181C) (C177A)): 0.01251
0.00688	0.1766	0.003072	1.479	0.4081	0.00466	0.02876	0.0005005	0	0.5294	0.009212	1.169	0.02034	1.063	0.01849	0.221	0.003846	0.5614	C=CC(=O)N(CC(=O)NC1CC1)C1CC1 [CA-031]	0.01687	0.0174	Rate constant with Cdk2 S181C (Cdk2(S181C) (C177A)): 0.009769
